Measured values as given in ChEMBL document CHEMBL1156624, “A click chemistry approach to pleuromutilin conjugates with nucleosides or acyclic nucleoside derivatives and their binding to the bacterial ribosome” (J Med Chem, 2008).

Columns and labels:
Escherichia coli [1] = assay: Binding affinity to Escherichia coli MRE600 ribosome assessed as protection against N1-cyclohexyl-N3-(2-morpholino)ethylcarbodiimide p-toluenesulfonate-induced modifications at nucleotide U2585 in peptidyl transferase center of 23S rRNA at 50 uM by chemical footprinting relative to control
Escherichia coli [2] = assay: Binding affinity to Escherichia coli MRE600 ribosome assessed as protection against N1-cyclohexyl-N3-(2-morpholino)ethylcarbodiimide p-toluenesulfonate-induced modifications at nucleotide U2506 in peptidyl transferase center of 23S rRNA at 50 uM by chemical footprinting relative to control
Escherichia coli [3] = assay: Binding affinity to Escherichia coli MRE600 ribosome assessed as protection against N1-cyclohexyl-N3-(2-morpholino)ethylcarbodiimide p-toluenesulfonate-induced modifications at nucleotide U2506 in peptidyl transferase center of 23S rRNA at 5 uM by chemical footprinting relative to control
Escherichia coli [4] = assay: Binding affinity to Escherichia coli MRE600 ribosome assessed as protection against N1-cyclohexyl-N3-(2-morpholino)ethylcarbodiimide p-toluenesulfonate-induced modifications at nucleotide U2585 in peptidyl transferase center of 23S rRNA at 5 uM by chemical footprinting relative to control

Activity (Escherichia coli [1]) | Activity (Escherichia coli [2]) | Activity (Escherichia coli [3]) | Activity (Escherichia coli [4]) | SMILES
0.36 | 0.1 | 0.53 | 0.57 | C=C[C@]1(C)C[C@@H](OC(=O)Cn2cc(CCn3cc(C)c(=O)[nH]c3=O)nn2)[C@]2(C)[C@H](C)CC[C@]3(CCC(=O)[C@@H]32)[C@@H](C)[C@@H]1O
0.38 | 0.16 | 0.61 | 0.69 | C=C[C@]1(C)C[C@@H](OC(=O)Cn2cc(Cn3ccc(N)nc3=O)nn2)[C@]2(C)[C@H](C)CC[C@]3(CCC(=O)[C@@H]32)[C@@H](C)[C@@H]1O
0.37 | 0.19 | 0.73 | 0.73 | C=C[C@]1(C)C[C@@H](OC(=O)Cn2cc(Cn3cnc4c(N)ncnc43)nn2)[C@]2(C)[C@H](C)CC[C@]3(CCC(=O)[C@@H]32)[C@@H](C)[C@@H]1O
0.25 | 0.1 | 0.38 | 0.5 | C=C[C@]1(C)C[C@@H](OC(=O)Cn2cc([C@@H](O)[C@@H]3O[C@H](n4cc(C)c(=O)[nH]c4=O)C[C@H]3O)nn2)[C@]2(C)[C@H](C)CC[C@]3(CCC(=O)[C@@H]32)[C@@H](C)[C@@H]1O (mixture of isomers)
0.41 | 0.08 | 0.21 | 0.48 | C=C[C@]1(C)C[C@@H](OC(=O)Cn2cc(CCCc3ccccc3)nn2)[C@]2(C)[C@H](C)CC[C@]3(CCC(=O)[C@@H]32)[C@@H](C)[C@@H]1O
0.29 | 0.06 | 0.31 | 0.54 | C=C[C@]1(C)C[C@@H](OC(=O)Cn2cc(Cc3ccccc3)nn2)[C@]2(C)[C@H](C)CC[C@]3(CCC(=O)[C@@H]32)[C@@H](C)[C@@H]1O
0.24 | 0.08 | 0.41 | 0.46 | C=C[C@]1(C)C[C@@H](OC(=O)Cn2cc(CCCn3cc(C)c(=O)[nH]c3=O)nn2)[C@]2(C)[C@H](C)CC[C@]3(CCC(=O)[C@@H]32)[C@@H](C)[C@@H]1O
0.18 | 0.03 | 0.24 | 0.45 | C=C[C@]1(C)C[C@@H](OC(=O)Cn2cc([C@]3(O)[C@@H](CO)O[C@@H](n4ccc(=O)[nH]c4=O)[C@@H]3O)nn2)[C@]2(C)[C@H](C)CC[C@]3(CCC(=O)[C@@H]32)[C@@H](C)[C@@H]1O
0.98 | 0.1 | 0.42 | 0.99 | C=C[C@]1(C)C[C@@H](OC(=O)CO)[C@]2(C)[C@H](C)CC[C@]3(CCC(=O)[C@@H]32)[C@@H](C)[C@@H]1O
0.26 | 0.05 | 0.27 | 0.56 | C=C[C@]1(C)C[C@@H](OC(=O)Cn2cc(CCCn3ccc(N)nc3=O)nn2)[C@]2(C)[C@H](C)CC[C@]3(CCC(=O)[C@@H]32)[C@@H](C)[C@@H]1O

More lines, now with the values behind:

SMILES | Activity (Escherichia coli [1]) | Activity (Escherichia coli [2]) | Activity (Escherichia coli [3]) | Activity (Escherichia coli [4])
C=C[C@]1(C)C[C@@H](OC(=O)Cn2cc(Cn3cc(C)c(=O)[nH]c3=O)nn2)[C@]2(C)[C@H](C)CC[C@]3(CCC(=O)[C@@H]32)[C@@H](C)[C@@H]1O | 0.37 | 0.18 | 0.69 | 0.75
C=C[C@]1(C)C[C@@H](OC(=O)Cn2cc(CCCn3cnc4c(N)ncnc43)nn2)[C@]2(C)[C@H](C)CC[C@]3(CCC(=O)[C@@H]32)[C@@H](C)[C@@H]1O | 0.22 | 0.06 | 0.17 | 0.33
C=C[C@]1(C)C[C@@H](OC(=O)Cn2cc(CO[C@@H]3C[C@@H](n4cc(C)c(=O)[nH]c4=O)O[C@H]3CO)nn2)[C@]2(C)[C@H](C)CC[C@]3(CCC(=O)[C@@H]32)[C@@H](C)[C@@H]1O | 0.41 | 0.12 | 0.44 | 0.73
C=C[C@]1(C)C[C@@H](OC(=O)Cn2cc(C[C@H](O)[C@@H]3O[C@H](n4cc(C)c(=O)[nH]c4=O)C[C@H]3O)nn2)[C@]2(C)[C@H](C)CC[C@]3(CCC(=O)[C@@H]32)[C@@H](C)[C@@H]1O | 0.35 | 0.09 | 0.33 | 0.69
C=C[C@]1(C)C[C@@H](OC(=O)Cn2cc(COC[C@H]3O[C@@H](n4cc(C)c(=O)[nH]c4=O)C[C@@H]3O)nn2)[C@]2(C)[C@H](C)CC[C@]3(CCC(=O)[C@@H]32)[C@@H](C)[C@@H]1O | 0.36 | 0.19 | 0.62 | 0.93
C=C[C@]1(C)C[C@@H](OC(=O)Cn2cc(CCc3ccccc3)nn2)[C@]2(C)[C@H](C)CC[C@]3(CCC(=O)[C@@H]32)[C@@H](C)[C@@H]1O | 0.35 | 0.05 | 0.29 | 0.61
C=C[C@]1(C)C[C@@H](OC(=O)Cn2cc(CCn3cnc4c(N)ncnc43)nn2)[C@]2(C)[C@H](C)CC[C@]3(CCC(=O)[C@@H]32)[C@@H](C)[C@@H]1O | 0.26 | 0.1 | 0.37 | 0.4
C=C[C@]1(C)C[C@@H](OC(=O)CSCCN(CC)CC)[C@]2(C)[C@H](C)CC[C@]3(CCC(=O)[C@H]32)[C@@H](C)[C@@H]1O | 0.58 | 0.05 | 0.1 | 0.59
C=C[C@]1(C)C[C@@H](OC(=O)Cn2cc(CO[C@@H]3[C@H](O)[C@@H](CO)O[C@H]3n3ccc(=O)[nH]c3=O)nn2)[C@]2(C)[C@H](C)CC[C@]3(CCC(=O)[C@@H]32)[C@@H](C)[C@@H]1O | 0.29 | 0.14 | 0.54 | 0.72
C=C[C@]1(C)C[C@@H](OC(=O)Cn2cc([C@]3(O)[C@H](O)[C@@H](CO)O[C@H]3n3ccc(=O)[nH]c3=O)nn2)[C@]2(C)[C@H](C)CC[C@]3(CCC(=O)[C@@H]32)[C@@H](C)[C@@H]1O | 0.35 | 0.18 | 0.61 | 0.74
C=C[C@]1(C)C[C@@H](OC(=O)Cn2cc(C[C@@H](O)[C@@H]3O[C@H](n4cc(C)c(=O)[nH]c4=O)C[C@H]3O)nn2)[C@]2(C)[C@H](C)CC[C@]3(CCC(=O)[C@@H]32)[C@@H](C)[C@@H]1O | 0.29 | 0.09 | 0.32 | 0.59
